From PMC6780721, “GOBP1 Plays a Key Role in Sex Pheromones and Plant Volatiles Recognition in Yellow Peach Moth, Conogethes punctiferalis (Lepidoptera: Crambidae)” (Insects, 2019)
Read-outs that look alike come from different tables or passages of the source.

Key:
GOBP1 = GOBP1 (Conogethes punctiferalis, UniProt A0A2H4FXX2); assay: Fluorescence competitive binding assay with 1-NPN, recombinant GOBP1; settings: for Intensity (%) GOBP1: 1-NPN fluorescence remaining in competitive binding, 2 µM protein, 2 µM 1-NPN, triplicates; for interaction with GOBP1 (in words): fluorescence binding assays, sex pheromones
From the text: (§1) Signal peptides were removed from complete ORF sequences of both genes and primers were designed, using antennal cDNA as the templates the GOBP1 and 2 were amplified and cloned using pEASY-T vector (TransGen Biotech, Beijing, China). The sense and antisense primers designed for GOBP1 and GOBP2. GOBP1 sense primers: 5′-[…]-3′ and antisense primer: 5′-[…]-3′ (BamH I and Hind III restriction sites are underlined); GOBP2 sense primer: 5′-[…]-3′ and antisense primer: 5′-[…]-3′ (EcoR I and Hind III restriction sites are underlined). The expected sequences were purified and cloned into the bacterial expression vector pET-30a (+) digested with the same enzymes. Then the plasmid was transformed into BL21 (DE3) competent cells (TransGen, Beijing, China) and the positive clone was inoculated in a liquid LB medium (4 L/protein) induced by 1 mM isopropyl-b-d-thiogalactoside (IPTG, Coollaber Science and Technology, Beijing, China) and placed in shaking incubator at 37 °C for 6 h. The induced bacterial cells were harvested from volume of 4 L liquid LB medium and centrifuged at 4 °C for 10 min (10,000 rpm). The pellets were subjected to ultrasonication and the recombinant GOBPs protein were purified by the Ni^2+-IDA column (His tagged) with a gradient concentration imidazole washing. The precipitate was resolved using 8 M carbamide and proteins were dialyzed in PBS buffer (pH 7.4) to remove the remaining chemical impurities from the protein. Purified protein concentrations of GOBP1 and GOBP2 was determined by the method of Bradford using BSA as standard The western blot method was performed to analyze the correct expression. […] The gel was sandwiched with a polyvinylidene fluoride (PVDF) membrane and sample in the gel was transferred to the PVDF (electrophoresis; 100 V, 200mA, 1 h). The film was washed four times using PBST (1% Tween-20 in 0.5 M Phosphate-buffered saline). 5% skim milk powder in PBST was used as blocking buffer. The PVDF membrane was incubated in primary antibody His (1:1000) and placed on shaker for overnight at 4 °C. The membrane was washed again using PBST and treated with second antibody sheep anti-rabbit antibody (1:5000) at 37 °C for 1 h. A final wash was given to the membrane and developed in ImageQuant LAS 4000 (GE, Pittsburgh, PA, USA) using western optimized HRP (horseradish peroxidase) reagent (Pierce, ELC kit, Thermoscientific, USA).
(§2) The fluorescence intensity was recorded on a FluoroMax-4 spectrophotometer (Horiba Scientific, Piscataway, NJ, USA) at room temperature using a 1 cm light path fluorimeter quartz cuvette. The fluorescent probe N-phenyl-1-naphthylamine (1-NPN) and all the tested chemicals were dissolved in HPLC purity methanol. The final concentration was prepared 2 mM. […] The fluorescence of 1-NPN was excited at 337 nm and emission spectra were recorded between […]. […] The GraphPad Prism 5 (GraphPad Software, Inc. San Diego, CA) was used to estimate the K1-NPN (KD of complex protein /1-NPN) values by nonlinear regression for a unique site of binding. It was assumed that the proteins were 100% active, with a stoichiometry of 1:1 (protein:ligand) at saturation. […] In the equation, [1-NPN] in the free concentration of 1-NPN, and K1-NPN is the dissociation constant of the complex protein/1-NPN.

GOBP2 = GOBP2 (Conogethes punctiferalis, UniProt A0A146JYY2); assay: Fluorescence competitive binding assay with 1-NPN, recombinant GOBP2; settings: for Intensity (%) GOBP2: 1-NPN fluorescence remaining in competitive binding, 2 µM protein, 2 µM 1-NPN, triplicates
From the text: as §1, §2

[1] = dissociation constant calculated from IC50: KD = [IC50]/(1+[1-NPN]/K1-NPN), pH 7.4, mean ± SD, read-out: KD (μM) GOBP1
[2] = ligand concentration halving initial 1-NPN fluorescence, pH 7.4, mean ± SD, read-out: IC50 (μM) GOBP1
[3] = ligand concentration halving initial 1-NPN fluorescence, pH 7.4, mean ± SD, read-out: IC50 (μM) GOBP2
[4] = dissociation constant calculated from IC50: KD = [IC50]/(1+[1-NPN]/K1-NPN), pH 7.4, mean ± SD, read-out: KD (μM) GOBP2

Sequence of GOBP1 (A0A2H4FXX2 entry or part of it): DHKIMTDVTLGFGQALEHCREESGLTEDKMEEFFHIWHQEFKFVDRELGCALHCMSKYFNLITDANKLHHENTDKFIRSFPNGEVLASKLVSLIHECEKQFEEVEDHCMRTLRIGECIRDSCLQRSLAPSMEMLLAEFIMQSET
Sequence of GOBP2 (A0A146JYY2 entry or part of it): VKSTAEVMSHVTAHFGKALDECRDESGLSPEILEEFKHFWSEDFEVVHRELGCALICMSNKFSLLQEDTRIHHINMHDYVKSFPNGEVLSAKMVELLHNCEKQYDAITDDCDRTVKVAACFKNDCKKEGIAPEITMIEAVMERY

| Intensity (%) GOBP1 (GOBP1; pH 7.4, mean ± SD) | Kd (GOBP1; [1]) | IC50 (GOBP1; [2]) | Intensity (%) GOBP2 (GOBP2; pH 7.4, mean ± SD) | IC50 (GOBP2; [3]) | Kd (GOBP2; [4]) | interaction with GOBP1 (in words) (GOBP1) | Structure (SMILES) | Kd (GOBP1) | Kd (GOBP2) | IC50 (GOBP1) | IC50 (GOBP2) |
| --- | --- | --- | --- | --- | --- | --- | --- | --- | --- | --- | --- |
| 95.2 ± 1.12% | 14.3 ± 1.74 µM | 33.5 ± 1.02 µM | 96.54 ± 1.39% | 98.7 ± 2.3 µM | – | – | CCCCCO [1-Amyl alcohol] | – | – | – | – |
| – | – | – | – | – | – | – | c1ccc(Nc2cccc3ccccc23)cc1 [1-NPN, N-phenyl-1-naphthylamine, reference compound] | 0.74 ± 0.41 µM | 0.7 ± 0.38 µM | – | – |
| 45.8 ± 0.56% | – | – | 85.52 ± 1.47% | – | – | – | CCCCCCCCCCCCCCO [1-Tetradecanol] | 2.05 ± 0.43 µM | 22.3 ± 1.89 µM | 4.81 ± 0.72 µM | 54 ± 2.56 µM |
| 68.98 ± 3.16% | 3.88 ± 0.91 µM | 9.09 ± 2.42 µM | 89.93 ± 2.15% | 21 ± 2.1 µM | 8.67 ± 1.12 µM | – | C=C1CC/C=C(\C)CC[C@@H]2[C@@H]1CC2(C)C [Caryophllene] | – | – | – | – |
| 47.29 ± 7.52% | 2.09 ± 0.45 µM | 4.9 ± 0.54 µM | 84.05 ± 2.25% | 21.4 ± 4.15 µM | 8.86 ± 0.93 µM | can interact | CCCCC/C=C/CCCCCCCCC=O [E10-16:Ald, (E)-10-hexadecenal] | – | – | – | – |
| 41.45 ± 2.51% | 0.35 ± 0.04 µM | 0.83 ± 0.09 µM | 55.64 ± 1.78% | 3.98 ± 0.36 µM | 1.64 ± 0.03 µM | – | CC(C)=CCC/C(C)=C/CC/C(C)=C/CO [Farnesol] | – | – | – | – |
| 75.78 ± 5.17% | 5.76 ± 0.64 µM | 13.5 ± 3.22 µM | 96.80 ± 1.33% | 56 ± 1.54 µM | 23.1 ± 4.68 µM | – | CCCCCCC=O [Heptanal] | – | – | – | – |
| 48.64 ± 4.35% | 0.55 ± 0.08 µM | 1.29 ± 0.14 µM | 67.94 ± 1.79% | 21.1 ± 1.83 µM | 8.7 ± 0.74 µM | – | CCCCCCCCCCCCCCCC=O [Hexadecanal] | – | – | – | – |
| 71.04 ± 8.80% | 5.69 ± 0.36 µM | 13.3 ± 2.41 µM | 96.99 ± 2.63% | 92.8 ± 3.83 µM | 38.3 ± 1.09 µM | – | CCCCCCCCC=O [Nonanal] | – | – | – | – |
| 78.33 ± 2.89% | 7.17 ± 0.67 µM | 16.8 ± 2.41 µM | 98.12 ± 1.92% | 96.7 ± 2.41 µM | 39.9 ± 9.7 µM | – | CCCCCCCCCCC=O [Undecanal] | – | – | – | – |
| 20.88 ± 0.48% | 1.2 ± 0.09 µM | 2.82 ± 0.44 µM | 58.63 ± 2.72% | 8.65 ± 1.87 µM | 3.58 ± 0.62 µM | can interact | CCCCC/C=C\CCCCCCCCC=O [Z10-16:Ald, (Z)-10-hexadecenal] | – | – | – | – |
| 45.50 ± 4.58% | 3.11 ± 0.71 µM | 7.31 ± 1.43 µM | 96.44 ± 1.50% | 68.1 ± 3.7 µM | 28.1 ± 0.62 µM | – | CCCCCC=O [n-Hexanal] | – | – | – | – |
| 97.23 ± 0.89% | 25.7 ± 0.43 µM | 60.4 ± 2.44 µM | 94.24 ± 1.82% | 95.2 ± 1.68 µM | – | – | CCCCCCO [n-Hexanol] | – | – | – | – |

| Structure (SMILES) | Intensity (%) GOBP1 (GOBP1; pH 7.4, mean ± SD) | Kd (GOBP1; [1]) | IC50 (GOBP1; [2]) | Intensity (%) GOBP2 (GOBP2; pH 7.4, mean ± SD) | IC50 (GOBP2; [3]) | Kd (GOBP2; [4]) | interaction with GOBP1 (in words) (GOBP1) | Kd (GOBP1) | Kd (GOBP2) | IC50 (GOBP1) | IC50 (GOBP2) |
| --- | --- | --- | --- | --- | --- | --- | --- | --- | --- | --- | --- |
| O=Cc1ccccc1 [Benzaldehyde] | 83.58 ± 6.61% | – | – | 94.76 ± 7.32% | – | – | – | 8.79 ± 0.59 µM | 31.9 ± 3.03 µM | 20.6 ± 1.31 µM | 77.1 ± 1.4 µM |
| CC/C=C\CCO [Cis-3-hexen-1-ol] | 94.99 ± 1.78% | – | – | 96.93 ± 0.99% | – | – | – | 33.5 ± 1.21 µM | 21.2 ± 1.14 µM | 78.63 ± 0.23 µM | 51.3 ± 1.6 µM |
| C=C(C)[C@H]1CC=C(C)CC1 [Limonene] | 43.27 ± 2.47% | 1.54 ± 0.39 µM | 3.62 ± 0.89 µM | 92.62 ± 1.21% | 35.5 ± 1.14 µM | 14.7 ± 2.78 µM | – | – | – | – | – |
| C=CC(C)(O)CCC=C(C)C (centres unmarked) [Linalool] | 74.52 ± 2.42% | – | – | 91.86 ± 0.71% | – | – | – | 6.7 ± 0.69 µM | 18.5 ± 0.48 µM | 15.7 ± 1.61 µM | 44.8 ± 1.16 µM |
| CC1=CCC2CC1C2(C)C (stereo not drawn) [α-Pinene] | 64.96 ± 3.26% | – | – | 98.57 ± 1.13% | – | – | – | 4.73 ± 0.48 µM | 28.1 ± 4.06 µM | 11.1 ± 3.47 µM | 67.9 ± 4.66 µM |
| C=C1CCC2CC1C2(C)C (stereo not drawn) [β-Pinene] | 66.21 ± 2.96% | – | – | 97.15 ± 3.95% | – | – | – | 4.24 ± 0.69 µM | 13.9 ± 1.36 µM | 9.94 ± 2.72 µM | 33.7 ± 3.29 µM |
